Reference: patent publication US8268840B2, “Pyrimidinyl pyridone inhibitors of kinases” (Roche Palo Alto LLC, priority 2008, dated 2012)

Tests used:
[1] = target: Human JNK1α1 (Homo sapiens, UniProt P45983); assay: JNK assay in vitro, phosphorylation of GST-ATF2 (19-96) with [γ-33P] ATP; format: biochemical; conditions: 2 nM enzyme, 1 μM ATF2, 6 μM ATP (Km), 30° C. for 30 min, ten concentration curves; read-out: IC50 JNK1
Method: (§1) JNK activity was measured by phosphorylation of GST-ATF2 (19-96) with [γ-^33P] ATP. The enzyme reaction was conducted at Km concentrations of ATP and the substrate at final volume of 40 μl in buffer containing 25 mM HEPES, pH 7.5, 2 mM dithiothreitol, 150 mM NaCl, 20 mM MgCl2, 0.001% Tween® 20, 0.1% BSA and 10% DMSO. Human JNK2α2 assay contains 1 nM enzyme, 1 μM ATF2, 8 μM ATP with 1 uCi [γ-^33P] ATP. Human JNK1α1 assay contains 2 nM enzyme, 1 μM ATF2, 6 μM ATP with 1 μCi [γ-^33P] ATP. Human JNK3 (Upstate Biotech #14-501M) assay contains 2 nM enzyme, 1 μM ATF2, 4 μM ATP with 1 μCi [γ-^33P] ATP. The enzyme assay was carried out in the presence or absence of several compound concentrations. JNK and compound were pre-incubated for 10 min., followed by initiation of the enzymatic reaction by adding ATP and the substrate. The reaction mixture was incubated at 30° C. for 30 min. At the end of incubation, the reaction was terminated by transferring 25 μl of the reaction mixture to 150 μl of 10% glutathione Sepharose® slurry (Amersham #27-4574-01) containing 135 mM EDTA. The reaction product was captured on the affinity resin, and washed on a filtration plate (Millipore, MABVNOB50) with phosphate buffered saline for six times to remove free radionucleotide. The incorporation of ^33P into ATF2 was quantified on a microplate scintillation counter (Packard Topcount). Compound inhibition potency on JNK was measured by IC50 value generated from ten concentration inhibition curves fitted into the 3-parameter model: % inhibition=Maximum/(1+(IC50/[Inhibitor])^slope). Data were analyzed on Microsoft Excel for parameter estimation.

[2] = target: Human JNK2α2 (Homo sapiens, UniProt P45984); assay: as above; format: biochemical; conditions: 1 nM enzyme, 1 μM ATF2, 8 μM ATP (Km), 30° C. for 30 min, ten concentration curves; read-out: IC50 JNK2
Chain of Human JNK2α2 (P45984 whole entry): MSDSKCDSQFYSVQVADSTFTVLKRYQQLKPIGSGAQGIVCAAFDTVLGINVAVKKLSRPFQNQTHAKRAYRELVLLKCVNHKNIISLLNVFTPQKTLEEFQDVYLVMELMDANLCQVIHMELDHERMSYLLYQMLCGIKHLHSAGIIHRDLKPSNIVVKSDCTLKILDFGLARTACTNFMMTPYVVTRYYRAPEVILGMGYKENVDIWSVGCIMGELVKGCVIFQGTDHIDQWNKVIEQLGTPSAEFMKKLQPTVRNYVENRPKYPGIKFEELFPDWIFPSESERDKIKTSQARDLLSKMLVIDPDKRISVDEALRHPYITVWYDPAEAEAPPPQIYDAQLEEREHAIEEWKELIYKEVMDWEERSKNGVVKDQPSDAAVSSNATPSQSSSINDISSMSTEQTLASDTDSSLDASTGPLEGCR
Method: as §1

Chain of Human JNK1α1 (P45983 1-384 isoform P45983-2): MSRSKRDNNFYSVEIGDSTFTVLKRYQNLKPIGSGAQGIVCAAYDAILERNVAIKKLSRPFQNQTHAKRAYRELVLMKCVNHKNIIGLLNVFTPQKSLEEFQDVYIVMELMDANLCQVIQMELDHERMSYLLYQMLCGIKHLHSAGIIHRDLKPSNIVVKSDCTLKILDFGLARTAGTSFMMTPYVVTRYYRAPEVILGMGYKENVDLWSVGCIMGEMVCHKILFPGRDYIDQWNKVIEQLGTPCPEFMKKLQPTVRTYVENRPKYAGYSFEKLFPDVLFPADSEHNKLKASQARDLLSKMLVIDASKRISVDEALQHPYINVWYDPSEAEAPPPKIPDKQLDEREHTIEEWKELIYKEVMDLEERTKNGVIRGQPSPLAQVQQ

IC50 [1] [nM]	IC50 [2] [nM]	melting point [°C]	Structure (SMILES)
20.5	43.9	246.5 to 248	Nc1cc(=O)n(C2CCCC2)c2nc(N[C@H]3CC[C@H](O)CC3)ncc12 [Compound I-5, 5-Amino-8-cyclopentyl-2-(4-hydroxy-cyclohexylamino)-8H-pyrido[2,3-d]pyrimidin-7-one]
34.4	37.7	276.6 to 278.4	Cc1c(N)c2cnc(N[C@H]3CC[C@H](C(=O)N4CCCC4)CC3)nc2n(C2CCC2)c1=O [Compound I-9, 5-Amino-8-cyclobutyl-6-methyl-2-[4-(pyrrolidine-1-carbonyl)-cyclohexylamino]-8H-pyrido[2,3-d]pyrimidin-7-one]
31.6	39.7	185 to 203	Nc1cc(=O)n(C2CCCCC2)c2nc(N[C@H]3CC[C@H](C(=O)N4CCOCC4)CC3)ncc12 [Compound I-7, 5-Amino-8-cyclohexyl-2-[4-(morpholine-4-carbonyl)-cyclohexylamino]-8H-pyrido[2,3-d]pyrimidin-7-one]
17.9	40.3	120 to 121.5	Nc1cc(=O)n(C2CCC2)c2nc(NC3CCCCC3)ncc12 [Compound I-3, 5-Amino-8-cyclobutyl-2-cyclohexylamino-8H-pyrido[2,3-d]pyrimidin-7-one]
11.1	25.8	169.5 to 170	Nc1cc(=O)n([C@@H]2CC[C@@H](O)C2)c2nc(NC3CCCCC3)ncc12 (racemic) [Compound I-1, 5-Amino-2-cyclohexylamino-8-((1R,3R)-3-hydroxy-cyclopentyl)-8H-pyrido[2,3-d]pyrimidin-7-one]
–	–	250 to 254	CS(=O)(=O)N1CCC(Nc2ncc3c(N)cc(=O)n(C4CCCCC4)c3n2)CC1 [Compound I-29, 5-Amino-8-cyclohexyl-2-(1-methanesulfonyl-piperidin-4-ylamino)-8H-pyrido[2,3-d]pyrimidin-7-one]
–	–	131 to 132.5	Nc1cc(=O)n(CCCO)c2nc(NC3CCCCC3)ncc12 [Compound I-8, 5-Amino-2-cyclohexylamino-8-(3-hydroxy-propyl)-8H-pyrido[2,3-d]pyrimidin-7-one]
–	–	286 to 287	Nc1c(F)c(=O)n(C2CCC2)c2nc(NC3CCCCC3)ncc12 [Compound I-4, 5-Amino-8-cyclobutyl-2-cyclohexylamino-6-fluoro-8H-pyrido[2,3-d]pyrimidin-7-one]
–	–	147.7 to 150.1	CCn1c(=O)cc(N)c2cnc(NC3CCCCC3)nc21 [Compound I-21, 5-Amino-2-cyclohexylamino-8-ethyl-8H-pyrido[2,3-d]pyrimidin-7-one]
–	–	236.1 to 239.1	Nc1cc(=O)n(CC2CC2)c2nc(NC3CCC3)ncc12 [Compound I-55, 5-Amino-2-cyclobutylamino-8-cyclopropylmethyl-8H-pyrido[2,3-d]pyrimidin-7-one]
–	–	172.6 to 176.6	CC(=O)N[C@H]1CC[C@H](Nc2ncc3c(N)cc(=O)n(C4CCCC4)c3n2)CC1 [Compound I-11, N-[4-(5-Amino-8-cyclopentyl-7-oxo-7,8-dihydro-pyrido[2,3-d]pyrimidin-2-ylamino)-cyclohexyl]-acetamide]
